Reference: ChEMBL document CHEMBL4842345, “Design, synthesis and biological evaluation of tanshinone IIA-based analogues: Potent inhibitors of microtubule formation and angiogenesis” (Eur J Med Chem, 2021)

Key:
A549 = test: Antiproliferative activity against human A549 cells assessed as reduction in cell viability measured after 72 hrs by MTT assay; type: functional, cell-based; details: A549, 72 h
HeLa = test: Antiproliferative activity against human HeLa cells assessed as reduction in cell viability measured after 72 hrs by MTT assay; type: functional, cell-based
HepG2 = test: Antiproliferative activity against human HepG2 cells assessed as reduction in cell viability measured after 72 hrs by MTT assay; type: functional, cell-based; details: HepG2, 72 h
U-937 = test: Antiproliferative activity against human U-937 cells assessed as reduction in cell viability measured after 72 hrs by MTT assay; type: functional, cell-based; details: U-937, 72 h
MCF7 = test: Antiproliferative activity against human MCF7 cells assessed as reduction in cell viability measured after 72 hrs by MTT assay; type: functional, cell-based; details: MCF7, 72 h
MGC-803 = test: Antiproliferative activity against human MGC-803 cells assessed as reduction in cell viability measured after 72 hrs by MTT assay; type: functional, cell-based; details: MGC-803, 72 h
[1] = Intrinsic clearance in human liver microsome; type: ADME, microsomes; details: liver microsomes, read-out: CLH
[2] = Kinetic solubility of the compound at pH 2 by nephelometry; type: physicochemical; details: buffer, read-out: Kinetic_solubility
[3] = Metabolic stability in human liver microsomes assessed as degradation half life; type: ADME, Microsome; details: liver microsomes
[4] = Kinetic solubility of the compound at pH 6.5 by nephelometry; type: physicochemical; details: buffer, read-out: Kinetic_solubility

Row | IC50 (A549) [µM] | IC50 (HeLa) [µM] | IC50 (HepG2) [µM] | IC50 (U-937) [µM] | IC50 (MCF7) [µM] | IC50 (MGC-803) [µM] | microsomal CLint [1] [µL/min/mg] | solubility kinetic [2] [µg/mL] | half-life [3] [min] | solubility kinetic [4] [µg/mL] | Compound
1 | 0.85 | 0.95 | 2.06 | 1.19 | 1.58 | 1.92 |  |  |  |  | Cc1coc2c1C(=O)C(=O)c1ccccc1-2
2 | 0.75 | 1.38 | 3.48 | 3.4 | > 5 | > 5 |  |  |  |  | COc1ccc2c(c1)C(=O)C(=O)c1cc(C)oc1-2
3 | 1.78 | 2.28 | 4.01 | 3.54 | > 5 | 2.92 |  |  |  |  | Cc1cc2c(o1)-c1ccc(O)cc1C(=O)C2=O
4 | 0.43 | 2.33 | 3.78 | > 5 | > 5 | 3.91 |  |  |  |  | COc1cccc2c1-c1occ(C)c1C(=O)C2=O
5 | 1.78 | 1.55 | 1.29 | 2.53 | 4.45 | 2.28 |  |  |  |  | Cc1coc2c1C(=O)C(=O)c1cc(Cl)ccc1-2
6 | 2.99 | 1.51 | 2.77 | 1.58 | 1.29 | 3.54 |  |  |  |  | Cc1cc2c(o1)-c1ccccc1C(=O)C2=O
7 | > 5 | > 5 | > 5 | > 5 | > 5 | > 5 |  |  |  |  | Cc1coc2c1C(=O)C(=O)c1cccc(O)c1-2
8 | > 5 | > 5 | > 5 | > 5 | > 5 | > 5 |  |  |  |  | Cc1cc2c(o1)-c1c(O)cccc1C(=O)C2=O
9 | 2.51 | 2.16 | 2.41 | 1.66 | 2.42 | 1.97 |  |  |  |  | Cc1cc2c(o1)-c1ccc(C(C)C)cc1C(=O)C2=O
10 | > 5 | > 5 | > 5 | > 5 | > 5 | > 5 |  |  |  |  | Cc1coc2c1C(=O)C(=O)c1cc(O)ccc1-2
11 | 0.94 | 2.82 | > 5 | 3.67 | > 5 | 3.95 |  |  |  |  | COc1ccc2c(c1)C(=O)C(=O)c1c(C)coc1-2
12 | 0.2 | 1.17 | 1.22 | 2.69 | > 5 | 2.8 |  |  |  |  | Cc1cc2c(o1)-c1ccc3c(c1C(=O)C2=O)CCCC3(C)C
13 | 1.5 | 4.22 | 3.27 | 2.2 | 3.57 | > 5 |  |  |  |  | Cc1coc2c1C(=O)C(=O)c1cc(C(C)C)ccc1-2
14 | 2.74 | 2.1 | 4.75 | 3.26 | > 5 | > 5 |  |  |  |  | COc1cccc2c1-c1oc(C)cc1C(=O)C2=O
15 | 2.2 | 3.47 | 4.91 | > 5 | > 5 | > 5 | 45 | < 5 | 10 | < 5 | Cc1coc2c1C(=O)C(=O)c1c-2ccc2c1CCCC2(C)C [TANSHINONE IIA]
